In experiment [1] the test system is RPMI-8226 human multiple myeloma xenograft. It is filed as in vivo. The method, then:
Anti-tumor effects following administration of anti-BCMA CAR T cells and a gamma secretase inhibitor compound, LY3039478, each, individually, and in combination, were assessed in a RPMI-8226 human multiple myeloma xenograft mouse model. The anti-BCMA CAR-expressing T cells were generated as described in Example 2.
NOD.Cg.PrkdescidIL2rgtm1 Wjl/SzJ (NSG) mice were injected subcutaneously (s.c.) with 1E+07 RPMI-8226 cells modified to express GFP and firefly luciferase (RPMI-8226 ffluc), and tumor volume was allowed to increase over the course of 25 days, the 25th day being designated “day 0” in this study. Animals were divided into 8 groups, and each group received one of the following treatments: (1) vehicle only, (2) LY3039478 (3 mg/kg) only, (3) Mock T cells (not expressing the CAR) (3.00E+06 T cells per mouse) and vehicle, (4) Mock T cells (3.00E+06 T cells per mouse) and LY3039478 (3 mg/kg), (5) anti-BCMA CAR+ T cells (1.00E+06 CAR+ cells per mouse) and vehicle, (6) anti-BCMA CAR+ T cells (1.00E+06 CAR+ cells per mouse) and LY3039478 (3 mg/kg), (7) anti-BCMA CAR+ T cells (3.00E+06 CAR+ cells per mouse) and vehicle, or (8) anti-BCMA CAR+ T cells (3.00E+06 CAR+ cells per mouse) and LY3039478 (3 mg/kg). In each group, LY3039478 or vehicle was delivered by mouth (p.o.) at day-1 and at day zero (0) and every other day (e.o.d.) up to day 21. Where applicable, T cells were administered by a single intravenous (i.v.) injection on day 0.
CAR+ T cells in blood and in tumor were assessed on days 7, […], 21, and 28 by flow cytometry using antibodies specific for cell surface markers and a reagent specific to the anti-BCMA CAR. Animal survival was monitored throughout the study.
The presence of CAR+ T cells in the blood was monitored over the course of the study (from blood drawn on days 7, 14, 21 and 28 post CAR-T cell administration). White blood cells from blood samples were stained with various reagents to detect various markers on the surface of immune cells, including T cells, and expression of the CAR (including a reagent specific for the CAR and a reagent specific for a transduction marker encoded by the CAR vector).
Tumor digests were also analyzed to determine the number of CD4+ and CD8+ CAR+ T cells in tumors following the various treatment conditions. […] Serum BCMA was also assessed according to treatment condition.

The subject of the next experiment is anti-BCMA CAR+ T cells. Briefly: Anti-BCMA CAR+ T cells incubated with BCMA-containing beads +/- LY3039478 (Luminex). The note with it: different concentrations. It is filed as cell-based, human. The protocol: Various parameters indicative of T cell function were assessed following incubation of anti-BCMA CAR+ T cells with BCMA-containing beads in the presence of different concentrations of the gamma secretase inhibitor, LY3039478, or vehicle (DMSO). Supernatant was harvested after 24 hours and production of TNF-alpha, IFN-gamma and IL-2 were measured using a Luminex Multiplex Assay.

Experiment [2] has as its system OPM2 or RPMI-8226 target cells. Briefly: Cytolytic activity of anti-BCMA CAR-T cells co-cultured with target cells +/- LY3039478 (IncuCyte). It is filed as cell-based, human. The source says: In this study, to generate anti-BCMA CAR-expressing T cells, CD4+ and CD8+ T cells were isolated by immunoaffinity-based enrichment from leukapheresis samples from two healthy donor subjects and one myeloma patient. Isolated T cells were activated and transduced with a viral vector encoding an anti-BCMA CAR. The CAR contained an scFv antigen-binding domain specific for BCMA having a VH domain and a VL domain with amino acid sequences set forth in SEQ ID NOS: 24 and 25, respectively, a spacer, a spacer having an amino acid sequence set forth in SEQ ID NO:31, a CD28 transmembrane region, a 4-1BB costimulatory signaling region and a CD3-zeta derived intracellular signaling domain. The nucleic acid construct encoding the CAR also included a truncated receptor sequence for use as a transduction marker, separated from the CAR sequence by a self-cleaving T2A sequence.
(§1) Anti-BCMA CAR-T cells generated as described in this Example above were cultured at 37° C. with either OPM2 or RPMI-8226 target cells at an effector to target (E:T) ratio of 0.3:1. The target cells were labeled with NucLight Red (NLR), to permit tracking of target cells by microscopy. Cultures were incubated in the absence of LY3039478 or in the presence of LY3039478 at concentrations of 0.1 nM, 1 nM, 10 nM, 100 nM, 1000 nM, 10000 nM or 100000 nM (the range covering the estimated human pharmacokinetic range is shown by the boxes in FIGS. 3A-3D). As a control, target cells were incubated with LY3039478 but without culture with CAR-T cells. Cytolytic activity was assessed by measuring the loss of viable target cells after about 150 hours, as determined by red fluorescent signal (using the IncuCyte® Live Cell Analysis System, Essen Bioscience). The area under the curve for killing observed during the culture period (˜150 hours) was determined. Percent lysis (% killing) was determined by normalizing the AUC for killing to cultures incubated without the inhibitor.

The next experiment relates to OPM2 target cells. Briefly: Similar study: concentration dependence of anti-BCMA CAR-T cytolytic function. It is filed as cell-based. Conditions: Homo sapiens, OPM-2; OPM2, one exemplary donor; read-out: increasing anti-BCMA CAR-T killing of BCMA-expressing target cells, IC50. The protocol: as §1
A similar study was carried out to further assess the effects of different concentrations of LY3039478, including concentrations within the estimated Cmax/Cmin for the inhibitor, on the cytolytic function of anti-BCMA CAR-T cells against OPM2 target cells.

The mark [3] stands for this setting: no CAR+ T cells, LY3039478 3 mg/kg p.o. alone or with Mock T cells 3.00E+06.

Each structure is given as a SMILES string.

Turning to `C[C@H](NC(=O)CCC(F)(F)F)C(=O)N[C@@H]1C(=O)N(CCO)c2ncccc2-c2ccccc21` [LY3039478, 4,4,4-trifluoro-N-[(1S)-2-[[(7S)-5-(2-hydroxyethyl)-6-oxo-7H-pyrido[2,3-d][3]benzazepin-7-yl]amino]-1-methyl-2-oxo-ethyl]butanamide], in experiment [1] (setting [3]), the “Day 65 Survival %” value was determined as 0%, the “Median Survival” value amounted to 22.5 days and the Number of deaths stood at 10. For the same molecule, in experiment [1] (presence of LY3039478, days 7 and 15), the “surface BCMA MFI on RPMI-8226 tumor cells (tumor digests, flow cytometry)” value is “increased”. In addition, the “peripheral blood count of CD4+ or CD8+ T cells that did not express the anti-BCMA CAR” value in experiment [1] (treated with or without LY3039478) is reported as “No changes”. Moreover, in the experiment with anti-BCMA CAR+ T cells, the “CAR+ T cell count” value is “did not impact” and the viability entry was “did not impact”. Besides, the “cytokine production (TNF-alpha, IFN-gamma and IL-2)” value in the experiment with anti-BCMA CAR+ T cells (24 hours) is given as “did not impact”. Moreover, in experiment [2] (0.1 nM to 100000 nM, E:T 0.3:1, about 150 hours, myeloma patient-derived CAR-T, OPM2 and RPMI-8226), the “cytolytic activity of anti-BCMA CAR T cells (% killing)” value is given as “increased the cytolytic activity”. The “detrimental effects on CAR T cell function” value in experiment [2] (100 μM LY3039478) is given as “No detrimental effects”. Further, in experiment [2] (CAR-T cells derived from the other donors), the CAR-T function entry is “increase in CAR-T function”. Further, the target survival result in experiment [2] (LY3039478 alone without CAR-T cells) is recorded as “No differences”. In the experiment with OPM2 target cells, the IC50 lay in the range of 0.1 to 0.25 nM.
